Assay results as given in ChEMBL document CHEMBL2321677, “Cyclic analogs of galanin and neuropeptide Y by hydrocarbon stapling” (Bioorg Med Chem, 2013).
pEC50, pKi: −log10 of the molar value. Calls of active or inactive are those of the source. No cut-off for these calls is given here. Bridge positions count the residues as written; N and C are the ends. Square brackets hold non-standard residues; d marks the D form. Peptide text beside a SMILES is read from it. * marks the point of attachment. X1 = CC(=O)N(C(=O)CCCCCN)[C@@H](C)C(=O)*; S5 = C=CCCC[C@](C)(N)C(=O)O; Sar = CNCC(=O)O

Tests used:
[1] = Half life in rat serum by HPLC analysis; type: ADME, cell-free
[2] = n-octanol-water partition coefficient, log D of the compound by shake-flask method; type: physicochemical
[3] = biological target: T1, Neuropeptide Y receptor type 2 (Homo sapiens, UniProt P49146); assay: Agonist activity at human NPY2R expressed inj CHOK1 cells assessed as inhibition of forskolin-stimulated cAMP production after 30 mins by luminescence assay; type: functional, cell-based, CHO-K1
T1 sequence (P49146 whole entry): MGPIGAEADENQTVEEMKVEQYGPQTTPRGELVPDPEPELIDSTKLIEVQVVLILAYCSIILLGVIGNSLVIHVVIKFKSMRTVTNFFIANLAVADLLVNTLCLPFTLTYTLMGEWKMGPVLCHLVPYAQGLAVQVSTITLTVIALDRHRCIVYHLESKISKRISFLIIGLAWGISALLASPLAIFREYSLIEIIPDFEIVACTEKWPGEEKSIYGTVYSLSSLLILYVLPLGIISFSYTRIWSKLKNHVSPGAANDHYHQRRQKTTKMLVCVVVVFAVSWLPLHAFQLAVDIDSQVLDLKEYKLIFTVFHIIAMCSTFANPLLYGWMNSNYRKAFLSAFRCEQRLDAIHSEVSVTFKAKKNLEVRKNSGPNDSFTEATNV

Mus musculus [4] = assay: Neurotoxicity against CF1 albino mouse assessed as motor impairment at 0.1 nmol/5 ul, icv after 0.5 hrs by rotarod test; type: toxicity, organism-based; settings: in vivo, icv_or_intrathecal
Mus musculus [5] = assay: Anticonvulsant activity in CF1 albino mouse assessed as protection against 6Hz partial psychomotor seizure at 1 nmol/5 ul, icv after 0.5 hrs relative to control; type: functional, organism-based
Galanin receptor type 1 = biological target: T2, Galanin receptor type 1 (Homo sapiens, UniProt P47211); assay: Displacement of euporium-galanin from human GalR1 after 1.5 hrs by DELFIA assay
T2 sequence (P47211 whole entry): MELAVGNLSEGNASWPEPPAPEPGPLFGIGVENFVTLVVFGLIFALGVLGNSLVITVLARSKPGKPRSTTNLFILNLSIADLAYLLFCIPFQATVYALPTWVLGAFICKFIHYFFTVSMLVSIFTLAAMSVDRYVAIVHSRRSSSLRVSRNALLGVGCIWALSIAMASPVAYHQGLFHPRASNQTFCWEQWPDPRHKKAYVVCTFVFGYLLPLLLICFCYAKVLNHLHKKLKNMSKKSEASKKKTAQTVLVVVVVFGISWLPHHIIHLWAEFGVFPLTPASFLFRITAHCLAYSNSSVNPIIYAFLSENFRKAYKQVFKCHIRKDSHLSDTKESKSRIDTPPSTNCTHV

[6] = n-octanol-water partition coefficient, log D of the compound by HPLC capacity factor method; type: physicochemical
Galanin receptor type 2 = biological target: T3, Galanin receptor type 2 (Homo sapiens, UniProt O43603); assay: Displacement of euporium-galanin from human GalR2 after 1.5 hrs by DELFIA assay
T3 sequence (O43603 whole entry): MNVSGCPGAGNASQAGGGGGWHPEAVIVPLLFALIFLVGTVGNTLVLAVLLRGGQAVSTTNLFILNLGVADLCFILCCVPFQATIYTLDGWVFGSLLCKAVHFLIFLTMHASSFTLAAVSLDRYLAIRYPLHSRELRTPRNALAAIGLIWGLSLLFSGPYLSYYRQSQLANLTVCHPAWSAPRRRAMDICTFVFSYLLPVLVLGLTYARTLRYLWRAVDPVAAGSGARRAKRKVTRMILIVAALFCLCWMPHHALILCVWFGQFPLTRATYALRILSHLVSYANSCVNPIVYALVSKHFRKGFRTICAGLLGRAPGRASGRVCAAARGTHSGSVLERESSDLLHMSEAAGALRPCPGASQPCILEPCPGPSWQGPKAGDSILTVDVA

## CC[C@H](C)[C@H](NC(=O)[C@H](Cc1ccc(O)cc1)NC(=O)[C@H](Cc1cnc[nH]1)NC(=O)[C@H](CCCN=C(N)N)NC(=O)[C@H](C)N(C(=O)CCCCCN)C(=O)[C@]1(C)CCC/C=C\CCC[C@](C)(NC(=O)[C@H](Cc2ccc(O)cc2)NC(C)=O)C(=O)N[C@@H](CCCCN)C(=O)N[C@@H](CCCCN)C(=O)N[C@@H](CCCCN)C(=O)N1)C(=O)N[C@@H](CC(N)=O)C(=O)N[C@@H](CC(C)C)C(=O)N[C@@H](CC(C)C)C(=O)N[C@H](C(=O)N[C@@H](CCCN=C(N)N)C(=O)N[C@@H](CCC(N)=O)C(=O)N[C@@H](CCCN=C(N)N)C(=O)N[C@@H](Cc1ccc(O)cc1)C(N)=O)[C@@H](C)O
[1]
  half-life: 1.8 h
[2]
  logD: 0.08
[3]
  pEC50: 6.39
Mus musculus [4]
  Activity: Non-toxic

## CC[C@H](C)[C@H](NC(=O)[C@H](Cc1ccc(O)cc1)NC(=O)[C@H](Cc1c[nH]cn1)NC(=O)[C@H](CCCN=C(N)N)NC(=O)[C@H](CC(C)C)NC(=O)[C@H](C)NC(=O)[C@H](CO)NC(=O)[C@H](Cc1ccc(O)cc1)NC(=O)[C@H](Cc1ccc(O)cc1)NC(=O)[C@H](CCCN=C(N)N)NC(=O)[C@H](C)NC(=O)[C@H](CC(C)C)NC(=O)[C@H](CC(=O)O)NC(=O)[C@H](CCC(=O)O)NC(=O)[C@H](C)NC(=O)[C@@H]1CCCN1)C(=O)N[C@@H](CC(N)=O)C(=O)N[C@@H](CC(C)C)C(=O)N[C@H](C(=O)N[C@H](C(=O)N[C@@H](CCCN=C(N)N)C(=O)N[C@@H](CCC(N)=O)C(=O)N[C@@H](CCCN=C(N)N)C(=O)N[C@@H](Cc1ccc(O)cc1)C(=O)O)[C@@H](C)O)[C@@H](C)CC
Mus musculus [5]
  Activity: inactive
Mus musculus [4]
  Activity: Non-toxic

## CC(C)C[C@H](NC(=O)[C@H](CC(C)C)NC(=O)[C@H](Cc1ccc(O)cc1)NC(=O)CNC(=O)[C@H](C)NC(=O)[C@H](CO)NC(=O)[C@H](CC(N)=O)NC(=O)[C@H](CC(C)C)NC(=O)[C@@H](NC(=O)[C@H](Cc1c[nH]c2ccccc12)NC(=O)CN)[C@@H](C)O)C(=O)NCC(=O)N1CCC[C@H]1C(=O)N[C@@H](Cc1cnc[nH]1)C(=O)N[C@@H](C)C(=O)N[C@H](C(N)=O)C(C)C
Mus musculus [5]
  Activity: inactive
[1]
  half-life: 0.13 h
Mus musculus [4]
  Activity: Non-toxic

## CC[C@H](C)[C@H](NC(=O)[C@H](Cc1ccc(O)cc1)NC(=O)[C@H](Cc1cnc[nH]1)NC(=O)[C@H](CCCNC(=N)N)NC(=O)[C@H](C)N(C(=O)CCCCCN)C(=O)[C@]1(C)CCC/C=C\CCC[C@](C)(NC(=O)[C@H](Cc2ccc(O)cc2)NC(C)=O)C(=O)N[C@@H](CCCCN)C(=O)N[C@@H](CCCCN)C(=O)N[C@@H](CCCCN)C(=O)N1)C(=O)N[C@@H](CC(N)=O)C(=O)N[C@@H](CC(C)C)C(=O)N[C@@H](CC(C)C)C(=O)N[C@H](C(=O)N[C@@H](CCCNC(=N)N)C(=O)N[C@@H](CCC(N)=O)C(=O)N[C@@H](CCCNC(=N)N)C(=O)N[C@@H](Cc1ccc(O)cc1)C(N)=O)[C@@H](C)O
Mus musculus [5]
  Activity: Active

## CC(=O)N[C@@H](C)C(=O)N[C@@H](CCCNC(=N)N)C(=O)N[C@@H](Cc1cnc[nH]1)C(=O)N[C@@H](Cc1ccc(O)cc1)C(=O)N[C@@]1(C)CCC/C=C/CCC[C@@](C)(C(=O)N[C@@H](CCCNC(=N)N)C(=O)N[C@@H](CCC(N)=O)C(=O)N[C@@H](CCCNC(=N)N)C(=O)N[C@@H](Cc2ccc(O)cc2)C(N)=O)NC(=O)[C@H](CC(C)C)NC(=O)[C@H](CC(C)C)NC(=O)[C@H](CC(N)=O)NC1=O (Ac-ARHY[S5]NLL[S5]RQRY-NH2; staple (E) 5-9)
Mus musculus [5]
  Activity: Active
[1]
  half-life: 2.7 h
[2]
  logD: -0.71
Mus musculus [4]
  Activity: Toxic

## CNCC(=O)N[C@@H](Cc1c[nH]c2ccccc12)C(=O)N[C@H](C(=O)N[C@@H](CC(C)C)C(=O)N[C@@H](CC(N)=O)C(=O)N[C@@H](CO)C(=O)N[C@@H](C)C(=O)NCC(=O)N[C@@H](Cc1ccc(O)cc1)C(=O)N[C@@H](CC(C)C)C(=O)N[C@@H](CC(C)C)C(=O)NCC(=O)N1CCC[C@H]1C(=O)N[C@@]1(C)CCC/C=C\CCC[C@@](C)(C(=O)N[C@@H](CCCCN)C(N)=O)NC(=O)[C@H](CCCCN)NC(=O)[C@H](CCCCN)NC(=O)[C@H](CCCCN)NC1=O)[C@@H](C)O (H-[Sar]WTLNSAGYLLGP[S5]KKK[S5]K-NH2; staple (Z) 14-18)
Mus musculus [5]
  Activity: Active
[1]
  half-life: 15.7 h
Galanin receptor type 1
  pKi: 8.42
Mus musculus [4]
  Activity: Non-toxic
[6]
  chromatographic logD: 0.78
Galanin receptor type 2
  pKi: 7.81

## CNCC(=O)N[C@@H](Cc1c[nH]c2ccccc12)C(=O)N[C@H](C(=O)N[C@@H](CC(C)C)C(=O)N[C@@H](CC(N)=O)C(=O)N[C@@H](CO)C(=O)N[C@@]1(C)CCC/C=C/CCC[C@@](C)(C(=O)NCC(=O)N2CCC[C@H]2C(=O)N[C@@H](CCCCN)C(=O)N[C@@H](CCCCN)C(=O)N[C@@H](CCCCN)C(=O)N[C@@H](CCCCN)C(N)=O)NC(=O)[C@H](CC(C)C)NC(=O)[C@H](Cc2ccc(O)cc2)NC(=O)CNC1=O)[C@@H](C)O (H-[Sar]WTLNS[S5]GYL[S5]GPKKKK-NH2; staple (E) 7-11)
Mus musculus [5]
  Activity: Active
[1]
  half-life: 6.4 h
Galanin receptor type 1
  pKi: 7.43
Mus musculus [4]
  Activity: Non-toxic
[6]
  chromatographic logD: 0.71
Galanin receptor type 2
  pKi: 6.92

## CC[C@H](C)[C@H](NC(=O)[C@H](Cc1ccc(O)cc1)NC(=O)[C@H](Cc1cnc[nH]1)NC(=O)[C@H](CCCNC(=N)N)NC(=O)[C@H](C)N(C(C)=O)C(=O)CCCCCN)C(=O)N[C@@H](CC(N)=O)C(=O)N[C@@H](CC(C)C)C(=O)N[C@H](C(=O)N[C@H](C(=O)N[C@@H](CCCNC(=N)N)C(=O)N[C@@H](CCC(N)=O)C(=O)N[C@@H](CCCNC(=N)N)C(=O)N[C@@H](Cc1ccc(O)cc1)C(N)=O)[C@@H](C)O)[C@@H](C)CC (X1-RHYINLITRQRY-NH2)
[1]
  half-life: 0.57 h
[2]
  logD: -2.13
